Assay results published in PMC2879007 (Biochemical pharmacology, 2010).
Marks after values point to notes of the source that are not given here.

Legend:
CYP2D6.1 = CYP2D6.1 (Homo sapiens, UniProt P10635); assay: bufotenine production from 5-MeO-DMT by recombinant CYP2D6.1; type: in vitro ADME
[1] = serum pharmacokinetics in Tg-CYP2D6; type: in vivo, mice; settings: for Cmax / MRT / Tmax / half-life: Tg-CYP2D6 (CYP2D6-humanized), mouse, ip; for Cmax / MRT / Tmax / half-life / AUC0→∞: serum
CYP2D6.10 = CYP2D6.10 (Homo sapiens, UniProt P10635, P34S/S486T); assay: bufotenine production from 5-MeO-DMT by recombinant CYP2D6.10; type: in vitro ADME
[2] = system: human CYP2D6 PM hepatocytes; assay: 5-MeO-DMT depletion and bufotenine formation in human CYP2D6 PM hepatocytes
[3] = as above; settings: human, 5-MeO-DMT alone, 2 µM; for hepatocyte CLint at 2 µM: In vitro CLint
CYP2D6.2 = CYP2D6.2 (Homo sapiens, UniProt P10635, R296C/S486T); assay: bufotenine production from 5-MeO-DMT by recombinant CYP2D6.2; type: in vitro ADME
[4] = system: human CYP2D6 EM hepatocytes; assay: 5-MeO-DMT depletion and bufotenine formation in human CYP2D6 EM hepatocytes
[5] = as above; settings: human, 5-MeO-DMT alone, 2 µM; for hepatocyte CLint at 2 µM: In vitro CLint
[6] = serum pharmacokinetics in wild-type FVB/N mice; type: in vivo; settings: for Cmax / MRT / Tmax / half-life: FVB/N (wild-type), mouse, ip; for Cmax / MRT / Tmax / half-life / AUC0→∞: serum
[7] = bufotenine production from 5-MeO-DMT, Vmax/Km
[8] = bufotenine production from 5-MeO-DMT, mean ± SEM
[9] = Tg-CYP2D6 mice, 2 mg/kg 5-MeO-DMT alone i.p.
[10] = 5-MeO-DMT O-demethylase activity
[11] = PM hepatocytes 2, with harmaline, 2 µM each
[12] = PM hepatocytes 3, with harmaline, 2 µM each
[13] = PM hepatocytes 4, with harmaline, 2 µM each
[14] = wild-type mice, 2 mg/kg 5-MeO-DMT alone i.p.
[15] = wild-type mice, 5-MeO-DMT 2 mg/kg i.p., harmaline 5 mg/kg i.p.

COc1ccc2[nH]cc(CCN(C)C)c2c1 [5-MeO-DMT, 5-Methoxy-N,N-dimethyltryptamine]
CLint (CYP2D6.1; [7]): 0.44 µL/pmol P450/min | Vmax (CYP2D6.1; [8]): 12.8 ± 0.4 pmol/pmol P450/min | Km at 5 min (CYP2D6.1; human, recombinant CYP2D6.1 reconstituted with P450 reductase, pH 7.4): 29.3 ± 4.2 µM | Cmax ([1]; 2 mg/kg): 1.19 ± 0.33 µM | MRT ([1]; 2 mg/kg): 17.4 min | Tmax ([1]; 2 mg/kg): 5.8 min | half-life ([1]; 2 mg/kg): 14.7 ± 9 min | Cmax ([1]; 20 mg/kg): 18.7 ± 0.9 µM | MRT ([1]; 20 mg/kg): 23.1 min | Tmax ([1]; 20 mg/kg): 6.3 min | half-life ([1]; 20 mg/kg): 13.4 ± 1.4 min | clearance [1, 9]: 440 ± 50 mL/min/kg | increase of systemic exposure (AUC0→∞) by harmaline pre-treatment ([1]; Tg-CYP2D6 mice, 5-MeO-DMT 2 mg/kg i.p., harmaline 5 mg/kg i.p.): 3.6 fold | AUC0→∞ [1, 9]: 21.1 ± 2.3 ^b µmol·min/L | AUC0→∞ ([1]; Tg-CYP2D6 mice, 20 mg/kg 5-MeO-DMT i.p.): 568 ± 72 µmol·min/L | lower catalytic efficiency (Vmax/Km) compared with wild-type CYP2D6.1 (CYP2D6.10; [10]): 40 fold | CLint (CYP2D6.10; [7]): 0.011 µL/pmol P450/min | Vmax (CYP2D6.10; [8]): 10.3 ± 2.2 pmol/pmol P450/min | Km at 20 min (CYP2D6.10; human, recombinant CYP2D6.10 reconstituted with P450 reductase, pH 7.4): 947 ± 355 µM | Ke ([2]; PM hepatocytes 1, 5-MeO-DMT alone, 2 µM): 0.0186 min⁻¹ | Ke ([2]; PM hepatocytes 1, with harmaline, 2 µM each): 0.00086 min⁻¹ | Ke ([2]; PM hepatocytes 2, 5-MeO-DMT alone, 2 µM): 0.0251 min⁻¹ | In vitro T1/2 [2, 11]: cannot be estimated | Ke [2, 11]: cannot be estimated | Ke ([2]; PM hepatocytes 3, 5-MeO-DMT alone, 2 µM): 0.0215 min⁻¹ | In vitro T1/2 [2, 12]: cannot be estimated | Ke [2, 12]: cannot be estimated | Ke ([2]; PM hepatocytes 4, 5-MeO-DMT alone, 2 µM): 0.0265 min⁻¹ | In vitro T1/2 [2, 13]: cannot be estimated | Ke [2, 13]: cannot be estimated | Ke ([2]; PM hepatocytes Mean (N = 4), 5-MeO-DMT alone, 2 µM): 0.0229 min⁻¹ | Ke ([2]; PM hepatocytes Mean (only one sample estimable), with harmaline, 2 µM each): 0.00086 min⁻¹ | hepatocyte CLint at 2 µM ([3]; CYP2D6 PM hepatocytes, PM hepatocytes Mean (N = 4)): 81.9 µL/min/1e6 cells | half-life at 2 µM ([3]; CYP2D6 PM hepatocytes, In vitro T1/2, PM hepatocytes Mean (N = 4)): 30.8 min | hepatocyte CLint at 2 µM ([3]; human CYP2D6 PM (poor metabolizer) hepatocytes, PM hepatocytes 1): 66.5 µL/min/1e6 cells | hepatocyte CLint at 2 µM ([3]; human CYP2D6 PM (poor metabolizer) hepatocytes, PM hepatocytes 2): 95.8 µL/min/1e6 cells | hepatocyte CLint at 2 µM ([3]; human CYP2D6 PM (poor metabolizer) hepatocytes, PM hepatocytes 3): 88 µL/min/1e6 cells | half-life at 2 µM ([3]; human CYP2D6 PM (poor metabolizer) hepatocytes, In vitro T1/2, PM hepatocytes 1): 37.2 min | half-life at 2 µM ([3]; human CYP2D6 PM (poor metabolizer) hepatocytes, In vitro T1/2, PM hepatocytes 2): 27.6 min | half-life at 2 µM ([3]; human CYP2D6 PM (poor metabolizer) hepatocytes, In vitro T1/2, PM hepatocytes 3): 32.2 min | half-life at 2 µM ([3]; human CYP2D6 PM (poor metabolizer) hepatocytes, In vitro T1/2, PM hepatocytes 4): 26.1 min | lower catalytic efficiency (Vmax/Km) compared with wild-type CYP2D6.1 (CYP2D6.2; [10]): 2.6 fold | CLint (CYP2D6.2; [7]): 0.17 µL/pmol P450/min | Vmax (CYP2D6.2; [8]): 14.4 ± 0.9 pmol/pmol P450/min | Km at 5 min (CYP2D6.2; human, recombinant CYP2D6.2 reconstituted with P450 reductase, pH 7.4): 85 ± 19.4 µM | reduction of in vitro CLint by co-administered harmaline ([4]; CYP2D6 EM hepatocytes, 5-MeO-DMT alone vs with harmaline): over 24 fold | Ke ([4]; EM hepatocytes 1, 5-MeO-DMT alone, 2 µM): 0.0214 min⁻¹ | Ke ([4]; EM hepatocytes 1, with harmaline, 2 µM each): 0.00259 min⁻¹ | Ke ([4]; EM hepatocytes 2, 5-MeO-DMT alone, 2 µM): 0.0232 min⁻¹ | Ke ([4]; EM hepatocytes 2, with harmaline, 2 µM each): 0.00141 min⁻¹ | Ke ([4]; EM hepatocytes 3, 5-MeO-DMT alone, 2 µM): 0.0273 min⁻¹ | Ke ([4]; EM hepatocytes 3, with harmaline, 2 µM each): 0.00263 min⁻¹ | Ke ([4]; EM hepatocytes 4, 5-MeO-DMT alone, 2 µM): 0.02 min⁻¹ | Ke ([4]; EM hepatocytes 4, with harmaline, 2 µM each): 0.00195 min⁻¹ | Ke ([4]; EM hepatocytes 5, 5-MeO-DMT alone, 2 µM): 0.0333 min⁻¹ | Ke ([4]; EM hepatocytes 5, with harmaline, 2 µM each): 0.00061 min⁻¹ | Ke ([4]; EM hepatocytes Mean (N = 5), 5-MeO-DMT alone, 2 µM): 0.025 min⁻¹ | Ke ([4]; EM hepatocytes Mean (N = 5), with harmaline, 2 µM each): 0.00184 min⁻¹ | half-life at 2 µM ([5]; CYP2D6 EM hepatocytes, In vitro T1/2, EM hepatocytes 1): 32.4 min | half-life at 2 µM ([5]; CYP2D6 EM hepatocytes, In vitro T1/2, EM hepatocytes 2): 29.9 min | hepatocyte CLint at 2 µM ([5]; human CYP2D6 EM (extensive metabolizer) hepatocytes, EM hepatocytes 3): 141 µL/min/1e6 cells | hepatocyte CLint at 2 µM ([5]; human CYP2D6 EM (extensive metabolizer) hepatocytes, EM hepatocytes 4): 51 µL/min/1e6 cells | hepatocyte CLint at 2 µM ([5]; human CYP2D6 EM (extensive metabolizer) hepatocytes, EM hepatocytes 5): 87.4 µL/min/1e6 cells | half-life at 2 µM ([5]; human CYP2D6 EM (extensive metabolizer) hepatocytes, In vitro T1/2, EM hepatocytes 3): 25.4 min | half-life at 2 µM ([5]; human CYP2D6 EM (extensive metabolizer) hepatocytes, In vitro T1/2, EM hepatocytes 4): 34.7 min | half-life at 2 µM ([5]; human CYP2D6 EM (extensive metabolizer) hepatocytes, In vitro T1/2, EM hepatocytes 5): 20.8 min | half-life at 2 µM ([5]; human CYP2D6 EM (extensive metabolizer) hepatocytes, In vitro T1/2, EM hepatocytes Mean (N = 5)): 28.6 min | Cmax ([6]; 2 mg/kg): 1.36 ± 0.16 µM | MRT ([6]; 2 mg/kg): 19.1 min | Tmax ([6]; 2 mg/kg): 5.3 min | half-life ([6]; 2 mg/kg): 19.5 ± 12.2 min | Cmax ([6]; 20 mg/kg): 18.3 ± 2.8 µM | MRT ([6]; 20 mg/kg): 27.2 min | Tmax ([6]; 20 mg/kg): 7.5 min | half-life ([6]; 20 mg/kg): 13.4 ± 1 min | AUC0→∞ [6, 14]: 25.1 ± 1.3 µmol·min/L | AUC0→∞ ([6]; wild-type mice, 20 mg/kg 5-MeO-DMT i.p.): 650 ± 78 µmol·min/L | clearance [6, 14]: 370 ± 20 mL/min/kg | increase of Cmax by co-administered harmaline [6, 15]: about 1.4 fold | increase of MRT by co-administered harmaline [6, 15]: ~2.1 fold | increase of systemic exposure (AUC0→∞) by harmaline pre-treatment [6, 15]: 4.4 fold
